Where two headings read alike, the source gives them in different places.
Columns and labels:
[1] = test system: A2780/WT (wild-type) cells; test: Sulforhodamine B (SRB) cytotoxicity assay in A2780/WT cells; format: cell-based
Procedure: (§1) Each of the testing conditions used in this study in both A2780/WT (wild-type) and A2780/DX5 cells were repeated in five to fifteen experiments that were performed on separate days. Each experiment consisted of one microtiter plate with at least eight individual assays of a given drug treatment condition on the plate. The sulforhodamine B (SRB) assay was used to assess cytotoxicity and absorbance at 570 nm (A570) in order to calculate the percentage of cell control (or percent cell survival) for the various treatment conditions in the plate wells.
(§2) Roswell Park Memorial Institute (RPMI 1640) medium, fetal bovine serum (FBS), and L-glutamine were purchased from Gibco BRL. Drugs were dissolved in sterile dimethylsulfoxide (DMSO), from American Type Culture Collection (ATCC) for stock solutions (2.5 to 5.0 mM). Subsequent dilutions were made using cell culture medium (prior to adding the drug to cells). SRB was purchased from Sigma and dissolved in 1.0 percent acetic acid. Trichloroacetic acid was purchased from VWR International.
(§3) Cells were manipulated in a Class IIA/B3 Biological Safety Cabinet (Forma Scientific) and maintained at 37°C in a humidified atmosphere containing 5% CO2 in a water-jacketed cell culture incubator (Forma Scientific). Cells were counted using a Coulter-Z1 counter (Beckman-Coulter). Following drug treatment, plates were washed using a Biomek 2000 station (Beckman) and, following exposure to SRB dye, plates were washed using an automated plate washer (Model EL404, Bio-Tek Instruments). Percentage of control was correlated to A570 values and determined using a Model EL800 plate reader (Bio-Tek Instruments).
(§4) Population doubling times for the two cell lines used in this study encompassed a total of five cell doublings corresponding to approximately 5 days for A2780/WT and A2780/DX5 cells. A2780/WT and A2780/DX5 cells were cultured in RPMI 1640 medium supplemented with 10% fetal bovine serum and 1 mM of L-glutamine. Both cell lines were maintained as monolayered cultures in T-25 or T-75 flasks and then seeded to microtiter plate wells for experiments described herein. Prior to SRB assays, cell viability was monitored by evaluation of microtiter plate wells. Dead cells detach and float while living cells remain attached to the bottom of the cell well.
(§5) The sulforhodamine B (SRB) cytotoxicity assay (see, Skehan P, et al., New colorimetric cytotoxicity assay for anticancer-drug screening. J. Natl. Cancer Inst. 82:1107-1112 (1990)) was used to determine the cytotoxic effects of BNP1350, SN-38, topotecan, 9-NH2-CPT, and 9-NO2-CPT on cell growth in vitro. Briefly, after the medium was aspirated from individual plate wells, trichloroacetic acid (100 µL of 10.0% solution) was added to each well, and the plates were incubated at 4°C for at least 1 hour. The plates were washed five-times with water using an automated microplate washer (Model EL 404, Bio-Tek Instruments), SRB solution (100 µL of 0.4 grams SRB dissolved in 100 mL 1.0 percent acetic acid) was added, and plates remained at room temperature for 15 minutes. The plates were then washed five-times using acetic acid (1.0%), air dried, and bound dye was solubilized in Tris base (150 µL, 10 mM). Plates were agitated (gently) for 5 minutes and the absorbance values of the SRB dye-protein adduct at a 570 nm wavelength (A570) were determined using an automated microtiter plate reader equipped with an A570 filter (Model EL800, BioTek Instruments). Table VII. Summary of Cytotoxicity Experiments in A2780/WT and DX5 Cells

A2780/DX5 cells = test: Sulforhodamine B (SRB) cytotoxicity assay in A2780/DX5 cells; format: cell-based; settings: for IC50 Ratio: A2780/DX5 versus A2780/WT
Procedure: as §1, §2, §3, §4, §5

[2] = Homo sapiens, A2780, read-out: A2780/ WT (IC50)
[3] = Homo sapiens, A2780, read-out: A2780/ DX5 (IC50)
[4] = SRB assay, A2780/WT cells, read-out: A2780/ WT (IC50)
[5] = SRB assay, A2780/DX5 cells, read-out: A2780/ DX5 (IC50)

SMILES	IC50 [1, 2]	IC50 Ratio (A2780/DX5 cells)	IC50 (A2780/DX5 cells; [3])	IC50 [1, 4]	IC50 (A2780/DX5 cells; [5])	IC50 ([1]; Homo sapiens, SRB assay, A2780/WT cells, read-out: A2780/ WT (IC50))
CC[C@@]1(O)C(=O)OCc2c1cc1n(c2=O)Cc2c-1nc1ccccc1c2CC[Si](C)(C)CI [Compound 4, 11-(4S)-[2-(iodomethyldimethylsilanyl)-ethyl]-4-ethyl-4-hydroxy-1,12-dihydro-4H-2-oxa-6,12a-diaza-dibenzo[b,h]fluorene-3,13-dione]	15.7 nM	1.72	27 nM	–	–	–
CC[C@@]1(O)C(=O)OCc2c1cc1n(c2=O)Cc2c-1nc1ccccc1c2CC[Si](C)(C)CO [Compound 7, (4S)-4-ethyl-4-hydroxy-11-[2-(hydroxymethyldimethylsilanyl)-ethyl]-1,12-dihydro-4H-2-oxa-6,12a-diaza-dibenzo[b,h]fluorene-3,13-dione]	9.6 nM	4.2	40.3 nM	–	–	–
CC[C@@]1(O)C(=O)OCc2c1cc1n(c2=O)Cc2c-1nc1ccccc1c2CC[Si](C)(C)CSC[C@H](NC(=O)OC(C)(C)C)C(=O)OC [Compound 8, (2R, 4S)-2-tert-butoxycarbonylamino-3-({[2-(4-ethyl-4-hydroxy-3,13-dioxo-3,4,12,13-tetrahydro-1H-2-oxa-6,12a-diaza-dibenzo[b,h]fluoren-11-yl)-ethyl]-dimethyl-silanyl}-methylsulfanyl)-propionic acid methyl ester]	39.8 nM	2.77	110 nM	–	–	–
CCC1(O)C(=O)OCc2c1cc1n(c2=O)Cc2c-1nc1ccccc1c2CC[Si](C)(C)CSC(C)=O (stereo not drawn) [Compound 9, thioacetic acid S-({[2-(4-ethyl-4-hydroxy-3.13-dioxo-3,4,12,13-tetrahydro-1H-2-oxa-6,12a-diaza-dibenzo[b,h]fluoren-11-yl)-ethyl]-dimethylsilanyl} -methyl) ester]	–	1.94	–	64.7 nM	125 nM	–
CC[C@@]1(O)C(=O)OCc2c1cc1n(c2=O)Cc2c-1nc1ccccc1c2CC[Si](C)(C)CCCS(=O)(=O)c1ccccc1 [Compound 13, (4S)-11-{2-[(3-benzenesulfonylaronyl)-dimethylsilanyl]-ethyl}-4-ethyl-4-hydroxy-1,12-dihydro-4H-2-oxa-6,12a-diaza-dibenzo[b,h]fluorene-3,13-dione]	–	6.3	–	8.5 nM	53.5 nM	–
CC[C@@]1(O)C(=O)OCc2c1cc1n(c2=O)Cc2c-1nc1ccccc1c2CC[Si](C)(C)CCCn1ccnc1 [Compound 14, (4S)-4-ethyl-4-hydroxy-11-{2-[(3-imidazol-1-yl-propyl)-dimethyl-silanyl]-ethyl}-1,12-dihydro-4H-2-oxa-6,2a-diaza-dibenzo[b,h]fluorene-3,13-dione]	–	14.8	–	11.2 nM	166 nM	–
CC[C@@]1(O)C(=O)OCc2c1cc1n(c2=O)Cc2c-1nc1ccccc1c2CC[Si](C)(C)CCCn1cncn1 [Compound 15, (4S)-11-{2-[dimethyl-(3-[1,2,4]triazol-1-yl-pronyl)-silanyl]-ethyl}-4-ethyl-4-hydroxy-1,12-dihydro-4H-2-oxa-6,12a-diaza-dibenzo[b,h]fluorene-3,13-dione]	–	6.9	–	9 nM	62.4 nM	–
CC[C@@]1(O)C(=O)OCc2c1cc1n(c2=O)Cc2c-1nc1ccccc1c2CC[Si](C)(C)CCCN(C)C [Compound 16, (4S)-11-{2-[(3-dimethylaminopropyl)-dimethysilanyl]-ethyl}-4-ethyl-4-hydroxyl-1,12-dihydro-4H-2-oxa-6,12a-diaza-dibenzo[b,h]fluorene-3,13-dione]	–	21.7	–	23.6 nM	512 nM	–
CC[C@@]1(O)C(=O)OCc2c1cc1n(c2=O)Cc2c-1nc1ccccc1c2CC[Si](C)(C)CCCn1ccccc1=O [Compound 17, (4S)-11-(2-{dimethyl-[3-(2-oxo-2H-pyridin-1-yl)-propyl]-silanyl}-ethyl)-4-ethyl-4-hydroxy-1,12-dihydro-4H-2-oxa-6,12a-diaza-dibenzo[b,h]fluorene-3,13-dione]	16 nM	11.6	186 nM	–	–	–
CC[C@@]1(O)C(=O)OCc2c1cc1n(c2=O)Cc2c-1nc1ccccc1c2CC[Si](C)(C)CCCP(=O)(OC)OC [Compound 18, (4S)-(3-{[2-(4-ethyl-4-hydroxy-3,13-dioxo-3,4,12,13-tetrahydro-1H-2-oxa-6,12a-diaza-dibenzo[b,h]fluoren-11-yl)-ethyl]-dimethylsilanyl}-propyl)-phosphonic acid dimethyl ester]	58.6 nM	11.7	687 nM	–	–	–
CC[C@@]1(O)C(=O)OCc2c1cc1n(c2=O)Cc2c-1nc1ccccc1c2CC[Si](C)(C)CCCNC(=O)C(F)(F)F [Compound 23, (4S)-N-(3-{[2-(4-ethyl-4-hydroxy-3,13-dioxo-3,4,12,13-tetrahydro-1H-2-oxa-6,12a-diaza-dibenzo[b,h]fluoren-11-yl)-ethyl]-dimethyl-silanyl}-propyl)-2,2,2-trifiuoro-acetamide]	–	3.3	–	16.9 nM	55.8 nM	–
CC[C@@]1(O)C(=O)OCc2c1cc1n(c2=O)Cc2c-1nc1ccccc1c2CC[Si](C)(C)CCCNC(=O)Nc1ccccc1 [Compound 25, (4S)-1-(3-{[2-(4-ethyl-4-hydroxy-3,13-dioxo-3,14,12,13-tetrahydro-1H-2-oxa-6,12a-diaza-dibenzo[b,h]fluoren-11-yl)-ethyl]-dimethylsilanyl}-propyl)-3-phenylurea]	–	6.5	–	23.4 nM	152 nM	–
CCN(CC)C(=O)NCCC[Si](C)(C)CCc1c2c(nc3ccccc13)-c1cc3c(c(=O)n1C2)COC(=O)[C@]3(O)CC [Compound 27, (4S)-1,1-diethyl-3-(3-{[2-(4-ethyl-4-hydroxy-3,13-dioxo-3,4,12,13-tetrahydro-1H-2-oxa-6,12a-diaza-dibenzo[b,h]fluoren-11-yl)-ethyl]-dimethyl-silanyl}-propyl)-urea]	65.2 nM	7.21	470 nM	–	–	–
CC[C@@]1(O)C(=O)OCc2c1cc1n(c2=O)Cc2c-1nc1ccccc1c2CC[Si](C)(C)CCCNC(=O)N(C)C [Compound 29, (4S)-3-(3-{[2-(4-ethyl-4-hydroxy-3,13-dioxo-3,4,12,13-tetrahydro-1H-2-oxa-6,12a-diaza-dibenzo[b,h]fluoren-11-yl)-ethyl]-dimethylsilanyl}-propyl)-1,1-dimethylurea]	27.5 nM	11.4	312 nM	–	–	–
CC[C@@]1(O)C(=O)OCc2c1cc1n(c2=O)Cc2c-1nc1ccccc1c2CC[Si](C)(C)Cn1ccccc1=O [Compound 31, (4S)-11-{2-[dimethyl-(2-oxo-2H-pyridin-1-ylmethyl)-silanyl]-ethyl}-4-ethyl-4-hydroxy-1,12-dihydro-4H-2-oxa-6,12a-diaza-dibenzo[b,h]fluorene-3,13-dione]	12.1 nM	8.1	98.5 nM	–	–	–
CC[C@@]1(O)C(=O)OCc2c1cc1n(c2=O)Cc2c-1nc1ccccc1c2CC[Si](C)(C)CN1CCCC1 [Compound 32, (4S)-11-[2-(dimethyl-pyrrolidin-1-ylmethyl-silanyl)-ethyl]-4-ethyl-4-hydroxy-1,12-dihydro-4H-2-oxa-6,12a-diaza-dibenzo[b,h]fluorene-3,13-dione]	–	6.9	319 nM	–	–	46.4 nM
CC[C@@]1(O)C(=O)OCc2c1cc1n(c2=O)Cc2c-1nc1ccccc1c2CC[Si](C)(C)CSc1nccn1C [Compound 33, (4S)-11-{2-[dimethyl-(1-methyl-1H-imidazol-2-ylsulfanylmethyl)-silanyl]-ethyl}-4-ethyl-4-hydroxy-1,12-dihydro-4H-2-oxa-6,12a-diaza-dibenzo[b,h]fluorene-3,13-dione]	9.7 nM	6.0	57.8 nM	–	–	–

— EP2197879B1, “C7-SUBSTITUTED CAMPTOTHECIN ANALOGS” (priority 2007, dated 2009)
